# Activity calls are given as the source filed them.
# Legend:
# [1] = molecular target: Voltage-dependent T-type calcium channel subunit alpha-1H (Homo sapiens, UniProt O95180); type: functional;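 further: channel activity triggered by adding a high calcium stimulation buffer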
# [2] = molecular target: T1, Phosphoethanolamine/phosphocholine phosphatase (Homo sapiens, UniProt Q8TCT1); experiment: SAR assay for compounds that inhibit PHOSPHO1. [Related pubchem assays (depositor defined):AID1545, AID1565, AID1574]
# T1 sequence (Q8TCT1 whole entry): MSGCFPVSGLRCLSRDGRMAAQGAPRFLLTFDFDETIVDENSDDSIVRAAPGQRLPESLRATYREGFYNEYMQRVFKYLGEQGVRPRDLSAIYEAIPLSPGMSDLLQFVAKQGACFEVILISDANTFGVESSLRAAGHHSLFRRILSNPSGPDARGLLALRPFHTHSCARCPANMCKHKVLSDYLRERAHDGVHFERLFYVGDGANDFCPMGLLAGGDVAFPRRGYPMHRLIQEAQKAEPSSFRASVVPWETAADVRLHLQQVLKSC
# [3] = THP-1 cell cytotoxicity, dose response, cytotoxicity control for non-replicating M. tuberculosis project (AID 489025); type: functional
# [4] = microbe, parasite or virus in culture; type: functional; settings: Mycobacterium tuberculosis
# Vero = experiment: cells; type: functional; settings: Chlorocebus sabaeus
# [5] = HepG2 cell cytotoxicity, dose response, cytotoxicity control for non-replicating M. tuberculosis project (AID 489018); type: functional; settings: Mycobacterium tuberculosis
# cells = type: functional
# CAAX prenyl protease 2 = molecular target: T2, CAAX prenyl protease 2 (Saccharomyces cerevisiae S288c, UniProt Q03530); type: biochemical
# T2 sequence (Q03530 whole entry): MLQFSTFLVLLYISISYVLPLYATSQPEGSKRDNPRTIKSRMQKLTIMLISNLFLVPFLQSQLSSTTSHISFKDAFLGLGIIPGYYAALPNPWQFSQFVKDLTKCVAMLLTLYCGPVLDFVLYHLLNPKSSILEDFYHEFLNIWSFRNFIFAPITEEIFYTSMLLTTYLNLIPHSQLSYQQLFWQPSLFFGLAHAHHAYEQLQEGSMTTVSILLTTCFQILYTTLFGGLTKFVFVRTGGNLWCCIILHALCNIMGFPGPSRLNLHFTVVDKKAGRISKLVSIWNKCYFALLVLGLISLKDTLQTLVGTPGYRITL
# [6] = molecular target: T3, Alkaline phosphatase, tissue-nonspecific isozyme (Homo sapiens, UniProt P05186); experiment: potency against alkaline phosphatase TNAP – biochemical, luminescent, dose response, SAR follow-up (AID 1056)
# T3 sequence (P05186 whole entry): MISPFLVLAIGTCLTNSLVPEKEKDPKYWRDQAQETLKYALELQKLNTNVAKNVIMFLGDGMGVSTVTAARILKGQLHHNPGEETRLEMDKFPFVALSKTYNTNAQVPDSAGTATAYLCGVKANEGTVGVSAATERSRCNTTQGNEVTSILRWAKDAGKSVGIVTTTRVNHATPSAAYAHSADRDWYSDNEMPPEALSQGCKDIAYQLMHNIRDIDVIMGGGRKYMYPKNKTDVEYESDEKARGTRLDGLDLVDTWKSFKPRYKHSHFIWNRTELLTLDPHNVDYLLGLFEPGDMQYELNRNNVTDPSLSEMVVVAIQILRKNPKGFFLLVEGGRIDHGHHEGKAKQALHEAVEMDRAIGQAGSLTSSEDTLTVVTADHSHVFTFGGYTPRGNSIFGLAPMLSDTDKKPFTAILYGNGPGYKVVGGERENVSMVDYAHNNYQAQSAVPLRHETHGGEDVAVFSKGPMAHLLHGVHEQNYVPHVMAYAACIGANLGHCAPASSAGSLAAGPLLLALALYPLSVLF
# [7] = molecular target: Alkaline phosphatase, placental type (Homo sapiens, UniProt P05187); experiment: human placental alkaline phosphatase inhibition – biochemical, luminescence, confirmation (AID 1512); type: functional
# [8] = molecular target: DNA dC->dU-editing enzyme APOBEC-3A (Homo sapiens, UniProt P31941); experiment: Dose Response confirmation of small molecule APOBEC3A DNA Deaminase Inhibitors via a fluorescence-based single-stranded DNA deaminase assay. [Related pubchem assays (depositor defined):AID493011, AID493024]; type: functional
# [9] = molecular target: DNA dC->dU-editing enzyme APOBEC-3G (Homo sapiens, UniProt Q9HC16); type: functional;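 further: Dose-response counterscreen measuring inhibition of APOBEC3G DNA deaminase activity, run while confirming APOBEC3A inhibitors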
# [10] = Vero E6 cell cytotoxicity, dose response, cytotoxicity control for non-replicating M. tuberculosis project, secondary assay (AID 492998); type: functional, VeroE6; settings: Vero C1008
# Hexokinase = molecular target: T4, Hexokinase (Trypanosoma brucei, UniProt Q38C41); experiment: Confirmation assay for inhibitors of Trypanosoma brucei hexokinase 1-Analogue-first series. [Related pubchem assays (depositor defined):AID1430, AID1632, AID2516, AID2560, AID2579, AID2600, AID449725, AID492951]; type: functional
# T4 sequence (Q38C41 whole entry): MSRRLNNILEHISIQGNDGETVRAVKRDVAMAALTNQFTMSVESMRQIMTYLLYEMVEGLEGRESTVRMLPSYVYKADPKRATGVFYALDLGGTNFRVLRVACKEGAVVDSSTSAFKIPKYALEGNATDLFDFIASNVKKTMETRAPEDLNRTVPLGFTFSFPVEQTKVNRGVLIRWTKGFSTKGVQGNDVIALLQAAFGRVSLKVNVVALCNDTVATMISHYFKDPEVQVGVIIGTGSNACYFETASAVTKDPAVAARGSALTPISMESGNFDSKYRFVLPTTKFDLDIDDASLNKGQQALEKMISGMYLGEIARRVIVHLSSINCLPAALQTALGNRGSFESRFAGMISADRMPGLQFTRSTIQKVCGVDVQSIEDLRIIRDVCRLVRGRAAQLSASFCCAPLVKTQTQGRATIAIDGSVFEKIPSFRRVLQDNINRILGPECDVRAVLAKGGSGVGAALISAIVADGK
# [11] = molecular target: T5, Type-1 angiotensin II receptor (Homo sapiens, UniProt P30556); experiment: agonist activity at AGTR1 – cell-based, uHTS hits, selectivity assay for APJ receptor agonist project, dose response (AID 488865); type: functional;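 further: beta-arrestin recruitment to AT1 measured by enzyme fragment complementation luminescence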
# T5 sequence (P30556 whole entry): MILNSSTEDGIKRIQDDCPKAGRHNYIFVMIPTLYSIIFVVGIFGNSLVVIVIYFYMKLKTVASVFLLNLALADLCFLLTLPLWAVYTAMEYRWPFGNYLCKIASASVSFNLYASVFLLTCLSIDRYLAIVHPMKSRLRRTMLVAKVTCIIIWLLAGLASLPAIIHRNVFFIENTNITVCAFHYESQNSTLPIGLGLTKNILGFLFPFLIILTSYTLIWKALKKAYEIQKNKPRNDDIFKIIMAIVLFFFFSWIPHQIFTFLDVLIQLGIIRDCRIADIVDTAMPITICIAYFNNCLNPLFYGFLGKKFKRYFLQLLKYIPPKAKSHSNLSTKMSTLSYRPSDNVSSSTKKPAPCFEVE
# Streptococcus = experiment: GAS UMAA2166 growth inhibition – luminescence, BacTiterGlo, counter-screen for streptokinase expression inhibitor project, dose response (AID 1915); type: functional, organism-based;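 further: potency for reduction of bacterial viability or growth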
# [12] = molecular target: Neurotensin receptor type 1 (Homo sapiens, UniProt P30989); type: functional;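 further: Image-based confirmatory dose-response assay measuring agonist activity at NTR1; NTR1-expressing U2OS osteosarcoma cells imaged for beta-arrestin GFP spot formation; agonist potency where compounds increase beta-arrestin recruitment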
# [13] = system: Streptococcus sp. 'group A'; experiment: Streptococcus pyogenes SK(-)GAS viability under kanamycin – luminescence, BacTiterGlo, confirmation, counter-screen for streptokinase expression inhibitor project, dose response (AID 1900); type: functional, organism-based
# Streptokinase A = molecular target: T6, Streptokinase A (Streptococcus pyogenes serotype M1, UniProt P10520); experiment: viability-normalized secreted streptokinase activity reduction – plasminogen activation absorbance, OD405, dose response (AID 1914); type: functional, Streptococcus pyogenes M1 GAS;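 further: secreted streptokinase activity via plasminogen activation per viability signal from cell pellet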
# T6 sequence (P10520 whole entry): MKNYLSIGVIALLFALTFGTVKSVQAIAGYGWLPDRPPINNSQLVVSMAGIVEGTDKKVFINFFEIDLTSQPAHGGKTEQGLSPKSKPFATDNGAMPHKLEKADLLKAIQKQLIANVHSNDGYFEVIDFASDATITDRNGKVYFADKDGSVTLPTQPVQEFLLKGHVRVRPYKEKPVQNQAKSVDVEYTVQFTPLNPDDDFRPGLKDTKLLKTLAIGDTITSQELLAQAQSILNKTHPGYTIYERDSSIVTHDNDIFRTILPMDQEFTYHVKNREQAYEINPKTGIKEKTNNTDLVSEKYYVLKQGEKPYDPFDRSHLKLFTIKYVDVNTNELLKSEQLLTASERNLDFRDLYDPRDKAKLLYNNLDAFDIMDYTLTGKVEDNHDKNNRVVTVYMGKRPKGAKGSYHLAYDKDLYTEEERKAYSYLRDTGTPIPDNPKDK
# [14] = molecular target: T7, Microphthalmia-associated transcription factor (Homo sapiens, UniProt O75030); experiment: reducers of TRPM1 reporter luminescence, concentration series – cell-based, SK-MEL-5, cherry-picked, set 3, MITF inhibitor project, dose response (AID 493073); type: functional;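 further: SK-MEL-5 melanoma cells with luciferase driven by the MITF target TRPM1 promoter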
# T7 sequence (O75030 whole entry): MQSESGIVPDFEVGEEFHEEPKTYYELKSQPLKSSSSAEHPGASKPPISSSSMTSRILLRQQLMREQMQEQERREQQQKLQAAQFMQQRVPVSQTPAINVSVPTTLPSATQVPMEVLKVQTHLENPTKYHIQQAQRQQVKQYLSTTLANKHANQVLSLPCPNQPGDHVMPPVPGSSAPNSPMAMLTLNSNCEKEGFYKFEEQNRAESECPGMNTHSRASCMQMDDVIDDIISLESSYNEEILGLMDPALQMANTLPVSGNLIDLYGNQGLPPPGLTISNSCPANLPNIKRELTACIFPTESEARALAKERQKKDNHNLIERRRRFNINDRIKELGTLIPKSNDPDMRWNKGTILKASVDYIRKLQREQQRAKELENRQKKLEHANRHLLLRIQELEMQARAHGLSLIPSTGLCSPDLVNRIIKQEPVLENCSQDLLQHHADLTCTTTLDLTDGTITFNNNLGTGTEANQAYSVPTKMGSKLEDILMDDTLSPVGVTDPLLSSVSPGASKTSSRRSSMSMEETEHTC
# [15] = molecular target: T8, Carboxy-terminal domain RNA polymerase II polypeptide A small phosphatase 1 (Homo sapiens, UniProt Q9GZU7); experiment: CTDSP1 inhibitors, concentration-response, biochemical, absorbance readout, ultra-high-throughput screen actives (AID 540297); type: functional
# T8 sequence (Q9GZU7 whole entry): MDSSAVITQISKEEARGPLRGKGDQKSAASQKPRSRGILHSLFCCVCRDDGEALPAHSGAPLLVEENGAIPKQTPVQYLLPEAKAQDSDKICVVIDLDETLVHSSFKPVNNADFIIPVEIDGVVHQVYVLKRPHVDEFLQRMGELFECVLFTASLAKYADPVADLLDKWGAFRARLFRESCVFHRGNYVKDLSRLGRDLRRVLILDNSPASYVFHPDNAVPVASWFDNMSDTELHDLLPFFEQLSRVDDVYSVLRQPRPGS
# DNA dC->dU-editing enzyme APOBEC-3A, sequence (P31941 whole entry): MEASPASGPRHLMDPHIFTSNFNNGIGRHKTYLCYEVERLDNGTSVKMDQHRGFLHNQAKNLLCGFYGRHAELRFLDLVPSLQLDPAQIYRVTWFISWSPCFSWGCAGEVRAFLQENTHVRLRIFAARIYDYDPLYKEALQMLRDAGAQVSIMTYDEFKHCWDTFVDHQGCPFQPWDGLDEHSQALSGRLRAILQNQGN
# Voltage-dependent T-type calcium channel subunit alpha-1H, sequence (O95180 whole entry): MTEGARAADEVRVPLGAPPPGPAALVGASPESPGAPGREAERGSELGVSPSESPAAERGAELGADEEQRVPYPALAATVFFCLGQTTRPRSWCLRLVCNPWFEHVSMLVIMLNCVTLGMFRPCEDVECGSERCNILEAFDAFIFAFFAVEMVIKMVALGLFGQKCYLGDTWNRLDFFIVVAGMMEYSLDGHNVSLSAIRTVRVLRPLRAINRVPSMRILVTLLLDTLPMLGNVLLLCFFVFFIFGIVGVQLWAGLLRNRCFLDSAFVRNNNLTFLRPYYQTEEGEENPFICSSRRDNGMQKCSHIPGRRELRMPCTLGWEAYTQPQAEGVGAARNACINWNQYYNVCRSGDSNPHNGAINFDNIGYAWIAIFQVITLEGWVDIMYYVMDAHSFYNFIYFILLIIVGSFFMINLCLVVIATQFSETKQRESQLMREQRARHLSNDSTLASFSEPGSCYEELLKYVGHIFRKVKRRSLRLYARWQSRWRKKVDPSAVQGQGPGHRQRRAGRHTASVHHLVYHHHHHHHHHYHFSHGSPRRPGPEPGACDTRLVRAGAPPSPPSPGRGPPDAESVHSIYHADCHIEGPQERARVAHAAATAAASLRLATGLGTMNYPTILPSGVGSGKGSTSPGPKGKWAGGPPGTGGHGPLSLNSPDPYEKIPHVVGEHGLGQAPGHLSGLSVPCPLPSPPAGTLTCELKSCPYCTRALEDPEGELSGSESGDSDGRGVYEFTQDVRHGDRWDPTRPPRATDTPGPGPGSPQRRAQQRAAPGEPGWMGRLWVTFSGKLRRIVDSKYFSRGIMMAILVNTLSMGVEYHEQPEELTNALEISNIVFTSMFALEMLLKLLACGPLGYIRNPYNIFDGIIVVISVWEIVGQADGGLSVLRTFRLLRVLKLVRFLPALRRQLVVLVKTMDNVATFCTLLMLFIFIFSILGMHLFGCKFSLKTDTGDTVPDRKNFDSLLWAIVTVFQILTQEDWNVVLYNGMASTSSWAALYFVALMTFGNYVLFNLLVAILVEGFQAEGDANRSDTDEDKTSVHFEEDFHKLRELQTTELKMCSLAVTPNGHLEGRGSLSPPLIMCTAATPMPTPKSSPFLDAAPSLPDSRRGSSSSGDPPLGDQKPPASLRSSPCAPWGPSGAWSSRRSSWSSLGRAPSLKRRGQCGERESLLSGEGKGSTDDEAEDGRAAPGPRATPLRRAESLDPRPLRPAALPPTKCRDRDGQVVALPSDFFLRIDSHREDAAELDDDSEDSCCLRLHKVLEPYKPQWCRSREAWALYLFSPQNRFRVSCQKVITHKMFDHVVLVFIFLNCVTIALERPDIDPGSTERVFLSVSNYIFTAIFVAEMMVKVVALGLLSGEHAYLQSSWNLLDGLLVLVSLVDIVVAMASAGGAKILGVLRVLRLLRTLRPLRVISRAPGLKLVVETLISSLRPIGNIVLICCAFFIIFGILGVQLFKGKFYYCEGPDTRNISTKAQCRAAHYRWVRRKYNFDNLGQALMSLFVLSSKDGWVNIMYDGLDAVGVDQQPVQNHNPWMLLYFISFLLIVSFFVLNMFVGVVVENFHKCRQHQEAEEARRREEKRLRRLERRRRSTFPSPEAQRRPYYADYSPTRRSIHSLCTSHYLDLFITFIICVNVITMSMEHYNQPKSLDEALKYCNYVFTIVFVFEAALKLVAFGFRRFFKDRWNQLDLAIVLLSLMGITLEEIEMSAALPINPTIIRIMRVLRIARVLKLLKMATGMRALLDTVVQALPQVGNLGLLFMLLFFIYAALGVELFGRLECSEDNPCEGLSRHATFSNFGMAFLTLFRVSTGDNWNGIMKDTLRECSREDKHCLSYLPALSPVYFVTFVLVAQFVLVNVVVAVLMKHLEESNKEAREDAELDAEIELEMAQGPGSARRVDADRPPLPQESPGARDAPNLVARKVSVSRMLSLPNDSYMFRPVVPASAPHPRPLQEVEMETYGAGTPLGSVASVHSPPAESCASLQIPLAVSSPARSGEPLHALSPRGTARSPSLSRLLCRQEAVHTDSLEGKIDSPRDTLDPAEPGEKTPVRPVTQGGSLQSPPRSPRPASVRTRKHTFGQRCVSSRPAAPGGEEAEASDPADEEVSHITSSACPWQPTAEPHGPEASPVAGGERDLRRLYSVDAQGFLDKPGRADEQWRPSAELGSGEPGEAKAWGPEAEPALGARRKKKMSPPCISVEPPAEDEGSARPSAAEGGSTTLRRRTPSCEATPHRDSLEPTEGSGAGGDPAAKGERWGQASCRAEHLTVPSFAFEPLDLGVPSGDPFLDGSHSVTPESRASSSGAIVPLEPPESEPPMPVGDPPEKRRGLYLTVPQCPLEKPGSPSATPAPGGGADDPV
# DNA dC->dU-editing enzyme APOBEC-3G, sequence (Q9HC16 whole entry): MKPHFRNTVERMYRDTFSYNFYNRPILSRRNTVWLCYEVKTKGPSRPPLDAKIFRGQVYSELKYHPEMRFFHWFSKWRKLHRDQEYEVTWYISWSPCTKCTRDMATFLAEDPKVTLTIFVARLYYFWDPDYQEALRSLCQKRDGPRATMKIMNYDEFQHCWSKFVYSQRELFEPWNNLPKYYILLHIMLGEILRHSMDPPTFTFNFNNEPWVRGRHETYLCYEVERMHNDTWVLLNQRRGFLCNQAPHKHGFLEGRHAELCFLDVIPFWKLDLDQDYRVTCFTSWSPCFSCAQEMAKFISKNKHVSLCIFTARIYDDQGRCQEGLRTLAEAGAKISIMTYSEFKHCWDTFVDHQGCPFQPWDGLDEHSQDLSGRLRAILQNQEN
# Alkaline phosphatase, placental type, sequence (P05187 whole entry): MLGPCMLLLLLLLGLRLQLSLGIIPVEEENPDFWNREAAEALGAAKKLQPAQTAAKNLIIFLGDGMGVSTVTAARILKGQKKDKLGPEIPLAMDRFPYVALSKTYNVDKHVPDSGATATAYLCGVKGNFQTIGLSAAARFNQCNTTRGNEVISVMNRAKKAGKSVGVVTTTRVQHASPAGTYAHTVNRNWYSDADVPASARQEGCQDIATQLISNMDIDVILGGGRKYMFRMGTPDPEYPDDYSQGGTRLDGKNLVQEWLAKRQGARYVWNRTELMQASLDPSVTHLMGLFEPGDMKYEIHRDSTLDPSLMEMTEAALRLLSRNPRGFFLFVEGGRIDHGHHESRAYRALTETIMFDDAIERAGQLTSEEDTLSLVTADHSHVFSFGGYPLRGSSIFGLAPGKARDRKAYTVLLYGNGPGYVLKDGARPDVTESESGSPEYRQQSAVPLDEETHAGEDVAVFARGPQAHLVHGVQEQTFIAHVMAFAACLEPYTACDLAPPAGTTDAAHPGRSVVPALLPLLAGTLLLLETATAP
# Neurotensin receptor type 1, sequence (P30989 whole entry): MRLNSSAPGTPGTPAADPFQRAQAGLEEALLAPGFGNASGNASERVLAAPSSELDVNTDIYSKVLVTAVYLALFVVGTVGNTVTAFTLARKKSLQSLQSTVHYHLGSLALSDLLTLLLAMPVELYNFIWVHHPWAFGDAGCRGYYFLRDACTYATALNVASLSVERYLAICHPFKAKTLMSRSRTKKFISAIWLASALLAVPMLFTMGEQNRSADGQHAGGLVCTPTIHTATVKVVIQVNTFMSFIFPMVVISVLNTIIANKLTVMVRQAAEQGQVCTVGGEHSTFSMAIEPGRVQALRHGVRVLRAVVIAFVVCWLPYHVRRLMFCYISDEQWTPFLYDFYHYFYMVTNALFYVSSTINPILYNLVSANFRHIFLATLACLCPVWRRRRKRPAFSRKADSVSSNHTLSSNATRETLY
smiles,measurement,setting,value
Cc1ccc(NC(=O)CSc2nnc(Cc3cccn3C)n2-c2ccc(F)cc2)cc1,EC50,[1],3.49 µM (active)
COc1ccc(-n2sc3cc(F)ccc3c2=O)cc1,IC50,[2],5.42 µM (inactive)
CCNc1nc(NC(C)(C)C)nc(N2CCCCC2)n1,CC50,[3],> 40 µM (active)
same,CC50,[4],13.4 µM (active)
same,CC50,Vero,> 25 µM (active)
same,CC50,[5],> 20 µM (active)
same,IC50,cells,28.8 µM (active)
O=C(COC(=O)c1ccccc1Cc1ccccc1)NC1CCS(=O)(=O)C1 (stereo unspecified),AC50,CAAX prenyl protease 2,4.52 µM (active)
COc1ccccc1-c1nc(SCC(=O)c2ccc(O)c(O)c2)n[nH]1,IC50,[6],3.34 µM (active)
same,IC50,[7],14.8 µM (active)
O=C(NCc1ccccc1CN1CCCCC1)c1ccccc1N1CCCC1=O,IC50,[8],4.48 µM (active)
same,IC50,[9],4.58 µM (active)
O=[N+]([O-])c1ccc2[nH]c(-c3ccccn3)nc2c1,CC50,[3],13.4 µM (active)
same,CC50,[10],14.8 µM (active)
same,CC50,[5],17.4 µM (active)
same,IC50,cells,42.1 µM (active)
O=C(NCc1ccccc1)n1sc2ccccc2c1=O,IC50,Hexokinase,4.44 µM (active)
COc1ccccc1CC(=O)Nc1ccc2c(C)cc(=O)oc2c1,AC50,CAAX prenyl protease 2,34.5 µM (active)
Cc1ccc(S(=O)(=O)N2CCCC(NC(=O)N3CCN(c4ccccc4)CC3)C2)cc1 (stereo unspecified),EC50,[1],8.79 µM (active)
COc1ccc(F)cc1S(=O)(=O)Nc1ccc2ccccc2c1,IC50,[6],> 100 µM (inactive)
same,IC50,[7],> 100 µM (inactive)
Cc1cccc2sc(N(CCCN(C)C)C(=O)c3ccc(S(=O)(=O)N4CCc5ccccc5C4)cc3)nc12,EC50,[11],> 100 µM (inactive)
COc1ccc(CNC(=O)CSCc2cnn(-c3ccccc3)c2-n2cccc2)cc1,EC50,[1],4.8 µM (active)
N#CC1=C(c2ccccc2)/C(=C/c2ccccc2)OC1=O,CC50,[3],> 40 µM (active)
same,CC50,[10],> 20 µM (active)
same,CC50,[4],24.1 µM (active)
same,EC50,Streptococcus,> 150 µM (not active)
same,EC50,[12],6.66 µM (active)
same,EC50,[13],10.6 µM (active)
same,EC50,Streptokinase A,2.38 µM (active)
same,IC50,cells,10 µM (active)
same,AC50,[14],4.25 µM (active)
COC(=O)c1ccc(Cl)cc1NS(=O)(=O)c1ccc(OC)cc1,IC50,Hexokinase,> 25 µM (inactive)
Cc1ccc(NC(=O)C2CCCN2C(=O)c2cccs2)c(C)c1 (stereo unspecified),IC50,[8],3.76 µM (active)
same,IC50,[9],6.6 µM (active)
COc1cc(/C=C/c2cccc[n+]2C)ccc1OCC(=O)Nc1cccc(Cl)c1,IC50,[15],18.9 µM (active)
same,IC50,[8],2.83 µM (active)
same,IC50,[9],2.95 µM (active)
CCOc1ccc(C(=O)Nc2cc(Cl)ccc2C(=O)O)cc1,IC50,Hexokinase,20.7 µM (active)
CCn1c(SCC(=O)c2ccc(OC)cc2)nnc1-c1ccccc1,IC50,[6],> 100 µM (inactive)
same,IC50,[7],> 100 µM (inactive)
